Source: patent publication US20260364215A1, “Radiopharmaceutical Compositions Targeting Ephrin Type-A Receptor 2 and Uses Thereof” (PeptiDream Inc., priority 2022, published 2026)
Numbered stars: 1 amine (or outer) side, 2 acyl side, 3 side chain; on linkers, the order of the positions; unused ones are H or OH. Bridge positions count the residues as written; N and C are the ends. Square brackets hold non-standard residues; d marks the D form. Side chains are listed from the residue outwards. Peptide text beside a SMILES is read from it. * marks the point of attachment. DOTA(Lu) = O=C1CN2CCN3CCN(CC(=O)*)CCN(CC2)CC(=O)[O][Lu]([O]1)[O]C(=O)C3; DOTA = O=C(O)CN1CCN(CC(=O)O)CCN(CC(=O)*)CCN(CC(=O)O)CC1; Trp(1-Me,7-Cl) = Cn1cc(C[C@H](N)C(=O)O)c2cccc(Cl)c21; dPhe(3-CONH2) = NC(=O)c1cccc(C[C@@H](N)C(=O)O)c1; Piperazinyl(4-CH2COOH) = O=C(O)CN1CCN(*)CC1; Trp(1-Me) = Cn1cc(C[C@H](N)C(=O)O)c2ccccc21; NMe3Pal = CN[C@@H](Cc1cccnc1)C(=O)O; hArg = N=C(N)NCCCC[C@H](N)C(=O)O; Gly(cBu) = N[C@H](C(=O)O)C1CCC1; NMeE = CN[C@@H](CCC(=O)O)C(=O)O; Aad = N[C@@H](CCCC(=O)O)C(=O)O; CO = O=C([*:1])[*:2]

What was measured:
[1] = target: T1, EphA2 (Biotin-Avi-His-EphA2; Fc-EphA2 where the peptide had a biotin) (Homo sapiens, UniProt P29317); test: Surface plasmon resonance (SPR) peptide binding, Biacore 8K, immobilized EphA2, single cycle kinetics (Example C7); settings: 25 °C, Langmuir 1:1
T1 construct: His; purchased SinoBiologicals 13926-H27H-B
Method: Example C7. Surface Plasmon Resonance (SPR)
For analysis of peptide binding, a Biacore 8K instrument was used utilizing a SA chip. Biotin-Avi-His-EphA2 (SinoBiologicals, 13926-H27H-B) was immobilized on the chip using streptavidin-biotin chemistry at 25 °C in HBS-P+ buffer (10 mM HEPES, 150 mM NaCl, 0.05% Tween-20, pH 7.4) to a level of 1000-2000 RU (dependent on the analyte molecular weight). […] A dilution series of peptides was prepared in this buffer with a final DMSO concentration of 0.1% with a top peptide concentration between 10-100 nM and 9 further 2-fold dilutions. The SPR analysis was run at 25 °C at a flow rate of 30 μL/min in HBS-P+ with 0.1% DMSO running buffer and with a 120 second association and 1,200 second dissociation using single cycle kinetics methodology. All data was analyzed using Biacore Insight Evaluation Software version 4. Data was fitted using a Langmuir 1:1 binding model.

[2] = target: T2, Recombinant Human EphA2 Fc Protein (Homo sapiens, UniProt P29317); test: Interaction analysis (kinetics, KD) of peptides and conjugates against EphA2 by SPR, Biacore T200, single-cycle kinetics (Examples B15 and B22); assay type: binding; settings: conjugates, Biacore T200 according to Example B15, Table B16; read-out: SPR Kd
T2 construct: purchased Elabscience
In short: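 Biacore T200 SPR with Fc-tagged human EphA2 captured via anti-human antibody; running buffer HBS-P+ pH 7.4 with 1% DMSO, 25 °C. Five serial dilutions of peptide or conjugate run by single-cycle kinetics; KD from ka and kd after baseline subtraction.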

[3] = Plasma stability (% remaining of test compound in CD-1 (ICR) mouse plasma at 37 °C; Example C1); assay type: in vitro ADME
Method: Example C1. Plasma Stability
The pooled frozen CD-1 (ICR) mouse plasma was thawed in a water bath at 37 °C prior to experiment. Plasma was centrifuged at 4000 rpm for 5 min and the clots were removed if any. pH was adjusted to 7.4±0.1 if required.
Plasma (98 μL) and test compounds (2 μL, 100 μM, in DMSO) or reference compound propantheline bromide (2 μL, 100 μM in 40% v/v MeOH/H2O) were added to the individual wells of a 96-well microtiter plate in duplicate. The plate was incubated at 37 °C. During the incubation, aliquots were withdrawn at 0, 10, 30, 60, 120, and 300 minutes. 100 μL 4% H3PO4 and 800 μL of stop solution (200 ng/mL tolbutamide and 200 ng/mL labetalol in 100% CH3CN) were added to precipitate unwanted proteins. After mixing thoroughly, the quenched aliquots were centrifuged at 4,000 rpm for 20 min. Aliquots (100 μL) of supernatant were transferred to a new plate. The samples were shaken at 800 rpm for 10 min before performing LC-MS/MS analysis.
The analytes were detected by a multiple reaction monitoring method using a SCIEX Triple Quad 6500+ system equipped with an ACQUITY UPLC HSS T3 column (100 Å, 1.8 μm, 2.1 mm×30 mm). Mobile phase A: water with 0.1% formic acid; Mobile phase B: CH3CN with 0.1% formic acid.
(§1) The % remaining of test compound after incubation in plasma was calculated using the following equation:
(§2) % Remaining=100×(PAR(t)/PAR(t0)), where PAR is the peak area ratio of analyte versus internal standard (IS)

[4] = Plasma stability (% remaining and T1/2 of test compound in human plasma; Table C1); assay type: in vitro ADME
Method: as §1, §2

T2 sequence (P29317 24-534 limits assumed): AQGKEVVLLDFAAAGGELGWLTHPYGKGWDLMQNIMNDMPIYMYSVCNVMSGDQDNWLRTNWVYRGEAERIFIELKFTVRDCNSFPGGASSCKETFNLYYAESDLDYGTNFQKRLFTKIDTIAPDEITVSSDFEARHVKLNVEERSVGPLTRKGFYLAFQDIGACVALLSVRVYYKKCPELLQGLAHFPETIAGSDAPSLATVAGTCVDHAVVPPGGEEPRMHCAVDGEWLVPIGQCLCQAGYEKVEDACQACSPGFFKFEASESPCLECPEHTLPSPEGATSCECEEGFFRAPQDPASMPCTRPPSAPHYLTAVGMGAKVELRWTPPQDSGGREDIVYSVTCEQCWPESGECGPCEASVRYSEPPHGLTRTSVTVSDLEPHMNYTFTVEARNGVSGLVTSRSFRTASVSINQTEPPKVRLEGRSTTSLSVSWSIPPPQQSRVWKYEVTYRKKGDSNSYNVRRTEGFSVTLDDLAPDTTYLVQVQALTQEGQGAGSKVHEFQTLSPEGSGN
T1 sequence (P29317 24-534 limits assumed): as above

| SMILES | KD [1] [M⁻¹] | Kd [2] [nM] | % Remaining Mouse ([3]; 0 min) [%] | remaining at 2 h, 2 µM ([3]; pH 7.4, 120 min) [%] | half-life at 2 µM ([3]; pH 7.4, read-out: T1/2 (min) Mouse) [min] | half-life [4] [h] | % Remaining Human ([4]; 0 min) [%] | remaining at 2 h ([4]; 120 min) [%] |
| --- | --- | --- | --- | --- | --- | --- | --- | --- |
| CC(C)C[C@@H]1NC(=O)[C@H](CC(N)=O)NC(=O)[C@H](Cc2cccnc2)N(C)C(=O)[C@@H](C)NC(=O)CSC[C@@H](C(=O)N[C@H](CCCCNC(=O)CN2CCN(CC(=O)O)CCN(CC(=O)O)CCN(CC(=O)O)CC2)C(N)=O)NC(=O)[C@H](CCCCNC(=N)N)NC(=O)[C@H]([C@@H](C)O)NC(=O)[C@H](Cc2cn(C)c3ccccc23)NC(=O)[C@H](CCCCNC(=O)N2CCN(CC(=O)O)CC2)NC(=O)[C@H](Cc2cn(C)c3ccccc23)NC(=O)[C@H](CCC(=O)O)N(C)C(=O)[C@H](CCCC(N)=O)NC1=O.[Lu+3] [PDC_EphA2-00008010-C302] ({CH2CO}-[dA][NMe3Pal]NL[Aad](NH2)[NMeE][Trp(1-Me)]K([CO-Piperazinyl(4-CH2COOH)])[Trp(1-Me)]T[hArg]C[dK](DOTA)-NH2; thioether N-12) | 2.11e-10 | < 1 |  |  |  |  |  |  |
| CC(C)C[C@@H]1NC(=O)[C@H](CC(N)=O)NC(=O)[C@H](Cc2cccnc2)N(C)C(=O)[C@@H](C)NC(=O)CSC[C@@H](C(=O)N[C@H](CCCCNC(=O)CN2CCN3CCN4CCN(CC2)CC(=O)[O][Lu]([O]C(=O)C3)[O]C(=O)C4)C(N)=O)NC(=O)[C@H](CCCC(N)=O)NC(=O)[C@H]([C@@H](C)O)NC(=O)[C@H](Cc2cn(C)c3ccccc23)NC(=O)[C@H](CCCCNC(=O)N2CCN(CC(=O)O)CC2)NC(=O)[C@H](Cc2cn(C)c3ccccc23)NC(=O)[C@H](CCC(=O)O)N(C)C(=O)[C@H](CCCC(N)=O)NC1=O [PDC_EphA2-00007196-C302] ({CH2CO}-[dA][NMe3Pal]NL[Aad](NH2)[NMeE][Trp(1-Me)]K([CO-Piperazinyl(4-CH2COOH)])[Trp(1-Me)]T[Aad](NH2)C[dK](DOTA(Lu))-NH2; thioether N-12) | 3.74e-10 | < 1 | 100.0 | 99.4 | > 289 | > 4.82 | 100.0 | 96.3 |
| C[C@@H](O)[C@@H]1NC(=O)[C@H](Cc2cn(C)c3ccccc23)NC(=O)[C@H](CCCCNC(=O)N2CCN(CC(=O)O)CC2)NC(=O)[C@H](Cc2cn(C)c3c(Cl)cccc23)NC(=O)[C@H](CCC(=O)O)N(C)C(=O)[C@H](CCCC(N)=O)NC(=O)[C@H](C2CCC2)NC(=O)[C@H](CC(N)=O)NC(=O)[C@H](Cc2cccnc2)N(C)C(=O)[C@@H](Cc2cccc(C(N)=O)c2)NC(=O)CSC[C@@H](C(=O)N[C@H](CCCCNC(=O)CN2CCN(CC(=O)O)CCN(CC(=O)O)CCN(CC(=O)O)CC2)C(N)=O)NC(=O)[C@H](CCCC(N)=O)NC1=O.[Lu+3] [PDC_EphA2-00019440-C302] ({CH2CO}-[dPhe(3-CONH2)][NMe3Pal]N[Gly(cBu)][Aad](NH2)[NMeE][Trp(1-Me,7-Cl)]K([CO-Piperazinyl(4-CH2COOH)])[Trp(1-Me)]T[Aad](NH2)C[dK](DOTA)-NH2; thioether N-12) | 8.18e-11 | < 1 |  |  |  |  |  |  |
